According to patent publication EP0884321A1, “Ascorbic acid 2-phosphate zinc salt and process for manufacturing the same” (priority 1997, dated 1998):
Where a name gives a salt, the structure may show the parent alone. Read-outs that look alike come from different tables or passages of the source.

Tests used:
[1] = cited from earlier work
[2] = tested on: E. coli (K-12 strain); test: Antimicrobial effect, turbidity in NUTRIENT BROTH; type: cell-based; details: 0.1% salt, pH 6.8, about 10^7 cells/ml, 37°C for 24 hours
Description: (§1) To NUTRIENT BROTH (produced by DIFCO), 0.1% of an L-ascorbic acid 2-phosphate salt was added thereto, and the pH was adjusted to 6.8 using hydrochloric acid or sodium hydroxide. Using 5 ml of the medium thus prepared, test bacterium were inoculated in a concentration of about 10^7 cells/ml and incubated in a test tube at 37°C for 24 hours. […] As a control, the same test was performed using a medium not containing an L-ascorbic acid 2-phosphate salt.

[3] = tested on: B. subtilis (168 strain); test: Antimicrobial effect, turbidity in NUTRIENT BROTH; type: cell-based; details: 0.1% salt, pH 6.8, about 10^7 cells/ml, 37°C for 24 hours
Description: as §1

[4] = Stability in buffer solution on storage (HPLC); type: physicochemical; details: about 0.1%, stored at 50°C for 476 hours; for Stability (100% = concentration before storage) pH: 8: 50 mM Tris-HCl; for Stability (100% = concentration before storage) pH: 5: 50 mM acetic acid-NaOH
Description: In the Examples and Test Examples, the analysis of an L-ascorbic acid 2-phosphate salt or an ion thereof was performed using an Ap-containing solution having a known concentration (prepared from L-ascorbic acid 2-phosphate magnesium salt) as a standard by an HPLC method using a Shodex IEC DEAE-825 resin (ammonium acetate 10 mM → 1M gradient, detected spectrophotometrically at 265 nm). The elemental analysis was performed by an ICP emission method, flame photometry and an ion chromatography method. Unless otherwise indicated, the reagents used herein were commercially available reagents.
The stability of L-ascorbic acid 2-phosphate zinc salt was compared to that of L-ascorbic acid 2-phosphate magnesium salt. Each salt was dissolved in a buffer solution (50 mM acetic acid-NaOH, pH: 5, or 50 mM Tris-HCl, pH: 8) to a concentration of about 0.1% and stored at 50°C for 476 hours. The concentrations of the L-ascorbic acid 2-phosphate before and after storage were analyzed by the HPLC method.

[5] = Solubility in water
[6] = background statement on known salts

SMILES: O=C1O[C@H]([C@@H](O)CO)C(O)=C1OP(=O)([O-])[O-].[Na+].[Na+]
- concentration of aqueous solution that can be formed (solubility in water) [1]: about 30%
- turbidity after incubation, E. coli (K-12 strain) [2]: +
- turbidity after incubation, B. subtilis (168 strain) [3]: +

SMILES: O=C1O[C@H]([C@@H](O)CO)C(O)=C1OP(=O)([O-])[O-].[Mg+2] [L-ascorbic acid 2-phosphate magnesium salt]
- concentration of aqueous solution that can be formed (solubility in water) [1, 6]: < 30%
- turbidity after incubation, E. coli (K-12 strain) [2]: +
- turbidity after incubation, B. subtilis (168 strain) [3]: +
- Stability (100% = concentration before storage) pH: 8 ([4]; pH: 8): 95%
- Stability (100% = concentration before storage) pH: 5 ([4]; pH: 5): 82%

SMILES: O=C1O[C@H]([C@@H](O)CO)C(O)=C1OP(=O)([O-])[O-].[Zn+2] [L-ascorbic acid 2-phosphate zinc salt (Example 2)]
- Stability (100% = concentration before storage) pH: 8 ([4]; pH: 8, 28560 min): 95%
- Stability (100% = concentration before storage) pH: 5 ([4]; pH: 5, 28560 min): 92%

SMILES: O=C1O[C@H]([C@@H](O)CO)C(O)=C1OP(=O)([O-])[O-].[Zn+2] [L-ascorbic acid 2-phosphate zinc salt]
- turbidity after incubation, E. coli (K-12 strain) [2]: -
- turbidity after incubation, B. subtilis (168 strain) [3]: -
- remaining at 476 h ([4]; 50 mm acetic acid-naoh, pH 5, 50 mM acetic acid-NaOH, pH: 5, read-out: Stability (100% = concentration before storage) pH: 5): 91%
- remaining at 476 h ([4]; 50 mm tris-hcl, pH 8, 50 mM Tris-HCl, pH: 8, read-out: Stability (100% = concentration before storage) pH: 8): 93%
- solubility [5]: ≥ 500 mg/mL

SMILES: O=C1O[C@H]([C@@H](O)CO)C(O)=C1OP(=O)(O)O [calcium salt]
- concentration of aqueous solution that can be formed (solubility in water) [1, 6]: scarcely dissolves in water
